# Experimental data reported in patent US8952024B2, “Herbicidal pyrimidone derivatives” (E I du Pont de Nemours and Company, priority 2009, dated 2015).
# System: rice (Oryza sativa)
# Assay: Test B flooded paddy test
# Assay type: in vivo
# Conditions: 250 g ai/ha; flooded paddy test; visual rating on 0 to 100 scale (0 no effect, 100 complete control) after 13 to 15 days
# Outline: (§1)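 Ratings are visual, 0–100 (100 = complete control), taken versus untreated controls 13 to 15 days after treatment in the greenhouse. Compound went straight into paddy water held 3 cm above soil, applied to 2-leaf-stage plants of four species.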
row,SMILES,"Plant response rating, Flood, Rice"
1,Cc1ccc(F)cc1-n1c(-c2ccccc2)ncc(C(=O)C2=C(O)CCCC2=O)c1=O [Compound 44],40

# Same assay, conditions: Flood (flooded paddy test), 62 g ai/ha; scale 0 to 100, 0 is no effect, 100 is complete control; 13 to 15 days
row,SMILES,"Plant response rating, Rice"
1,Cc1ccc(F)cc1-n1c(-c2ccccc2)ncc(C(=O)C2=C(O)CCCC2=O)c1=O [Compound 44],20

# System: umbrella sedge (Cyperus difformis)
# Assay: Test B flooded paddy test
# Assay type: in vivo
# Conditions: 250 g ai/ha; flooded paddy test; visual rating on 0 to 100 scale (0 no effect, 100 complete control) after 13 to 15 days
# Outline: as §1
row,SMILES,"Plant response rating, Flood, Sedge, Umbrella"
1,Cc1ccc(F)cc1-n1c(-c2ccccc2)ncc(C(=O)C2=C(O)CCCC2=O)c1=O [Compound 44],90

# Same assay, conditions: Flood (flooded paddy test), 62 g ai/ha; scale 0 to 100, 0 is no effect, 100 is complete control; 13 to 15 days
row,SMILES,"Plant response rating, Sedge, Umbrella"
1,Cc1ccc(F)cc1-n1c(-c2ccccc2)ncc(C(=O)C2=C(O)CCCC2=O)c1=O [Compound 44],80

# System: ducksalad (Heteranthera limosa)
# Assay: Test B flooded paddy test
# Assay type: in vivo
# Conditions: 250 g ai/ha; flooded paddy test; visual rating on 0 to 100 scale (0 no effect, 100 complete control) after 13 to 15 days
# Outline: as §1
row,SMILES,"Plant response rating, Flood, Ducksalad"
1,Cc1ccc(F)cc1-n1c(-c2ccccc2)ncc(C(=O)C2=C(O)CCCC2=O)c1=O [Compound 44],90

# Same assay, conditions: Flood (flooded paddy test), 62 g ai/ha; scale 0 to 100, 0 is no effect, 100 is complete control; 13 to 15 days
row,SMILES,"Plant response rating, Ducksalad"
1,Cc1ccc(F)cc1-n1c(-c2ccccc2)ncc(C(=O)C2=C(O)CCCC2=O)c1=O [Compound 44],80

# System: barnyardgrass (Echinochloa crus-galli)
# Assay: Test B flooded paddy test
# Assay type: in vivo
# Conditions: 250 g ai/ha; flooded paddy test; visual rating on 0 to 100 scale (0 no effect, 100 complete control) after 13 to 15 days
# Outline: as §1
row,SMILES,"Plant response rating, Flood, Barnyardgrass"
1,Cc1ccc(F)cc1-n1c(-c2ccccc2)ncc(C(=O)C2=C(O)CCCC2=O)c1=O [Compound 44],30

# Same assay, conditions: Flood (flooded paddy test), 62 g ai/ha; scale 0 to 100, 0 is no effect, 100 is complete control; 13 to 15 days
row,SMILES,"Plant response rating, Barnyardgrass"
1,Cc1ccc(F)cc1-n1c(-c2ccccc2)ncc(C(=O)C2=C(O)CCCC2=O)c1=O [Compound 44],0

# System: large crabgrass (Digitaria sanguinalis)
# Assay: Test A pre-/postemergence plant response
# Assay type: in vivo
# Conditions: Postemergence, 125 g ai/ha; visual injury, 0 to 100 scale (0 no effect, 100 complete control), approx. ten days
# Outline: (§2)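 Injury scores (0, no effect; 100, complete control) come from visual comparison with untreated controls roughly ten days post-treatment. Test chemicals in a surfactant-containing non-phytotoxic solvent were applied as a directed soil spray preemergence and to one- to two-leaf seedlings postemergence.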
row,SMILES,"Crabgrass, Large plant response rating"
1,Cc1ccc(F)cc1-n1c(-c2ccccc2)ncc(C(=O)C2=C(O)CCCC2=O)c1=O [Compound 44],80

# Same assay, conditions: Postemergence, 500 g ai/ha; 0 to 100 scale, 0 = no effect, 100 = complete control; approx. ten days
row,SMILES,"Plant response rating, Crabgrass, Large"
1,Cc1ccc(F)cc1-n1c(-c2ccccc2)ncc(C(=O)C2=C(O)CCCC2=O)c1=O [Compound 44],90

# Same assay, conditions: Preemergence, 125 g ai/ha; 0 to 100 scale, 0 = no effect, 100 = complete control
row,SMILES,"Plant response rating, Crabgrass, Large"
1,Cc1ccc(F)cc1-n1c(-c2ccccc2)ncc(C(=O)C2=C(O)CCCC2=O)c1=O [Compound 44],80

# Same assay, conditions: Preemergence, 500 g ai/ha; visual injury, 0 to 100 scale (0 no effect, 100 complete control), approx. ten days
row,SMILES,"Plant response rating, Crabgrass, Large"
1,Cc1ccc(F)cc1-n1c(-c2ccccc2)ncc(C(=O)C2=C(O)CCCC2=O)c1=O [Compound 44],90

# System: pigweed (Amaranthus retroflexus)
# Assay: Test A pre-/postemergence plant response
# Assay type: in vivo
# Conditions: Postemergence, 125 g ai/ha; visual injury, 0 to 100 scale (0 no effect, 100 complete control), approx. ten days
# Outline: as §2
row,SMILES,Pigweed plant response rating
1,Cc1ccc(F)cc1-n1c(-c2ccccc2)ncc(C(=O)C2=C(O)CCCC2=O)c1=O [Compound 44],100

# Same assay, conditions: Postemergence, 500 g ai/ha; 0 to 100 scale, 0 = no effect, 100 = complete control; approx. ten days
row,SMILES,"Plant response rating, Pigweed"
1,Cc1ccc(F)cc1-n1c(-c2ccccc2)ncc(C(=O)C2=C(O)CCCC2=O)c1=O [Compound 44],100

# Same assay, conditions: Preemergence, 125 g ai/ha; 0 to 100 scale, 0 = no effect, 100 = complete control
row,SMILES,"Plant response rating, Pigweed"
1,Cc1ccc(F)cc1-n1c(-c2ccccc2)ncc(C(=O)C2=C(O)CCCC2=O)c1=O [Compound 44],60

# Same assay, conditions: Preemergence, 500 g ai/ha; visual injury, 0 to 100 scale (0 no effect, 100 complete control), approx. ten days
row,SMILES,"Plant response rating, Pigweed"
1,Cc1ccc(F)cc1-n1c(-c2ccccc2)ncc(C(=O)C2=C(O)CCCC2=O)c1=O [Compound 44],90

# System: corn (Zea mays)
# Assay: Test A pre-/postemergence plant response
# Assay type: in vivo
# Conditions: Postemergence, 125 g ai/ha; visual injury, 0 to 100 scale (0 no effect, 100 complete control), approx. ten days
# Outline: as §2
row,SMILES,Corn plant response rating
1,Cc1ccc(F)cc1-n1c(-c2ccccc2)ncc(C(=O)C2=C(O)CCCC2=O)c1=O [Compound 44],0

# Same assay, conditions: Postemergence, 500 g ai/ha; 0 to 100 scale, 0 = no effect, 100 = complete control; approx. ten days
row,SMILES,"Plant response rating, Corn"
1,Cc1ccc(F)cc1-n1c(-c2ccccc2)ncc(C(=O)C2=C(O)CCCC2=O)c1=O [Compound 44],40

# Same assay, conditions: Preemergence, 125 g ai/ha; 0 to 100 scale, 0 = no effect, 100 = complete control
row,SMILES,"Plant response rating, Corn"
1,Cc1ccc(F)cc1-n1c(-c2ccccc2)ncc(C(=O)C2=C(O)CCCC2=O)c1=O [Compound 44],0

# Same assay, conditions: Preemergence, 500 g ai/ha; visual injury, 0 to 100 scale (0 no effect, 100 complete control), approx. ten days
row,SMILES,"Plant response rating, Corn"
1,Cc1ccc(F)cc1-n1c(-c2ccccc2)ncc(C(=O)C2=C(O)CCCC2=O)c1=O [Compound 44],0

# System: morningglory (Ipomoea spp.)
# Assay: Test A pre-/postemergence plant response
# Assay type: in vivo
# Conditions: Postemergence, 125 g ai/ha; visual injury, 0 to 100 scale (0 no effect, 100 complete control), approx. ten days
# Outline: as §2
row,SMILES,Morningglory plant response rating
1,Cc1ccc(F)cc1-n1c(-c2ccccc2)ncc(C(=O)C2=C(O)CCCC2=O)c1=O [Compound 44],80

# Same assay, conditions: Postemergence, 500 g ai/ha; 0 to 100 scale, 0 = no effect, 100 = complete control; approx. ten days
row,SMILES,"Plant response rating, Morningglory"
1,Cc1ccc(F)cc1-n1c(-c2ccccc2)ncc(C(=O)C2=C(O)CCCC2=O)c1=O [Compound 44],90
